Data taken from patent US20170246190A1, “METHODS AND FORMULATION FOR IMPROVING ORAL AVAILABILITY OF CPT-11 WHILE REDUCING CPT-11 INDUCED GASTROINTESTINAL TOXICITY IN CANCER THERAPY” (Johnpro Biotech Inc., priority 2014, published 2017).
Structures can show the parent of a compound that is named as a salt.

How the values were obtained:
NOD/SCID mice [1] = assay: Bloody diarrhea evaluation by daily naked-eye observation; format: in vivo; conditions: oral CPT-11 50 mg/Kg and/or silychristin 10 mg/Kg
Procedure: (§1) To inoculate tumor, HT29 cells (1×10^6 cells per injection) were injected subcutaneously to lab animals to generate s.c. tumors on day 1, which were allowed to grow to about 5 mm in diameter. Two sets of experiments were conducted.
(§2) In the first set of experiment, effects of silymarin on the reduction of CPT-11 induced bloody stool were investigated. […] At the end of the experiments, the animals were sacrificed and colon tissues from each animals were stained and used in histological analysis.

NOD/SCID mice [2] = assay: Histological analysis (H&E) of colon tissues after oral CPT-11 treatment; format: in vivo; conditions: oral CPT-11 50 mg/Kg, with or without silychristin 10 mg/Kg; FIG. 2
Procedure: as §1, §2

[3] = Oral availability of CPT-11: blood levels of CPT-11 and SN-38 by HPLC in mice bearing HT29 xenograft tumors; format: in vivo, NOD/SCID mice; conditions: oral CPT-11 40 mg/Kg alone, 4 hrs after ingestion, FIG. 1A
Procedure: as §1
In the second set of experiment, oral availability of CPT-11 was evaluated. The animals were randomly assigned to 3 groups, in which animals in group 1 (N=5) were on normal diet; animals in group 2 (N=5) received oral CPT-11 treatment (40 mg/Kg), and animals in group 3 (N=5) received a dose of dose of UDCA (20 mg/Kg) on day 1, an hour later, one dose of CPT-11 (40 mg/Kg) and one dose of silymarin (100 mg/Kg) were given. Blood samples were respectively taken at 1, 4, 8 hrs after the combined treatment of CPT-11 and on days 4, and 8; and the level of SN-38 (i.e., an active metabolite of CPT-11) was measured by HPLC. The body weight (BW) of each animal was measured daily.
The animals bearing xenografted s.c. colon tumors were randomly assigned into 3 groups, in which group 1 received no treatment, group 2 received one dose of oral treatment of CPT-11 (40 mg/Kg), and group 3 received UDCA (20 mg/Kg), CPT-11 (40 mg/Kg) and silymarin (100 mg/Kg) via oral ingestion in accordance with procedures described in the “Materials and methods” section. […]

E. Coli βG (eβG) = E. Coli βG (eβG) (Escherichia coli, UniProt P05804); assay: Beta-glucuronidase activity with fluorogenic substrate MUG, E. Coli enzyme; format: biochemical; conditions: FIG. 3A
E. Coli βG (eβG), sequence (P05804 whole entry): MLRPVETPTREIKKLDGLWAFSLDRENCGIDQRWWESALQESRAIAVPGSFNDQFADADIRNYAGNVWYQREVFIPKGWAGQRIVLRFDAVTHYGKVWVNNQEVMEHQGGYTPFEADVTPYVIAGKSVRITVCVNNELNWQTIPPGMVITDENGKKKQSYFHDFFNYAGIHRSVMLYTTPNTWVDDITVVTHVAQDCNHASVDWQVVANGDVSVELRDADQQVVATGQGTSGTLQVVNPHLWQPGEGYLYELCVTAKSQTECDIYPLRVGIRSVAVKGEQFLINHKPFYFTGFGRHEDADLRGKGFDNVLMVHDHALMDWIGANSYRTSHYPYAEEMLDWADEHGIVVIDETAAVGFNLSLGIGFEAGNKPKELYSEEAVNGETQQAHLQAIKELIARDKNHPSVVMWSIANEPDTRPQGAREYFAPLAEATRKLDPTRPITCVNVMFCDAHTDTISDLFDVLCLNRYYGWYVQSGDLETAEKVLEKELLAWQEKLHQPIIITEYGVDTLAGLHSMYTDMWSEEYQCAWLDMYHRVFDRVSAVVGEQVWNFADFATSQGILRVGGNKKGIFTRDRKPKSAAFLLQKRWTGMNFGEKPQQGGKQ
Procedure: (§3) The βG activity in solution was determined with the fluorogenic substrate 4-methylumbellifery β-D-glucuronide (MUG), in which the non-fluorescent MUG would give rise to glucuronic acid and a highly fluorescent product, 4-methylumbelliferone (4-MU), at higher pH, after being converted by βG. The reaction can be quenched by the addition of a basic solution of sodium carbonate, and pH may be adjusted to quantitate the fluorescent signals. […] After 10 minutes, the assays were quenched at 15 second intervals by adding 1.9 ml of the carbonate stopping buffer. The samples were subject to fluorescence measurement, and the data was converted to nmol MUG hydrolyzed as an indication of GUS enzyme activity.
(§4) Silymarin is known to be a mixture of flavonolignans extracted from blessed milk thistle (Silybum marianum). […] Results are illustrated in FIGS. 3A and 3B.

human βG (hβG) = biological target: T1, human βG (hβG) (Homo sapiens, UniProt P08236); assay: Beta-glucuronidase activity with fluorogenic substrate MUG, human enzyme; format: biochemical; conditions: 8 μM; FIG. 3B
T1 sequence (P08236 23-651): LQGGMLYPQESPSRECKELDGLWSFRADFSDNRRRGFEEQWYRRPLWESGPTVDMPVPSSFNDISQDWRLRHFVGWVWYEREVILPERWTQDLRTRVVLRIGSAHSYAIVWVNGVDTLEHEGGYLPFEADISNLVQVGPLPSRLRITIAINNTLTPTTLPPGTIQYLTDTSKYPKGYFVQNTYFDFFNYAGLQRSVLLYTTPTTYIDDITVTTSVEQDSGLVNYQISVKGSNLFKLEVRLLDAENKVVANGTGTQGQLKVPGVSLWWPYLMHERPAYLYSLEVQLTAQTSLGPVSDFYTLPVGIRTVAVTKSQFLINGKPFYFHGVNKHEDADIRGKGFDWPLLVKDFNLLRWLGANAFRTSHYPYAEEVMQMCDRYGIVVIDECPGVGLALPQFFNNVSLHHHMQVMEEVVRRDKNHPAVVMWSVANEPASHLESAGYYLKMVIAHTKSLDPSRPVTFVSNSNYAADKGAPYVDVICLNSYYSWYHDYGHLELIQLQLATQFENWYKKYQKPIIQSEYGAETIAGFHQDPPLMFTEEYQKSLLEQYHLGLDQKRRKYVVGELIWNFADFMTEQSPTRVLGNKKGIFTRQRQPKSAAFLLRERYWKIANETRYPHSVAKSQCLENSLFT
Procedure: as §3, §4

normal cells HEK-293 = assay: Cell viability assay (MTS) on normal cells; format: cell-based, human; conditions: 100 μM; FIG. 4
Procedure: Cell line used in the present disclosure were human colon carcinoma cell line HT29, and human embryonic kidney cell line HEK-293. HT29 cells were cultured and maintained in Dulbecco's modified Eagle media (DMEM) supplemented with 10% heat inactivated fetal bovine serum (FBS), 50 units/mL penicillin G, 50 μg/mL streptomycin (pH 7.4), while HEK-293 cells were cultured in complete SFMII growth medium supplemented with 4mM L-glutamine. Both cell lines were maintained in humidified environment comprising 5% CO2/95% air at 37° C.
Cell were cultured at a density of 1.0×10^5 cells/well in 96-well round-bottom plates (Falcon, UK) containing 200 μL of culturing medium. Cells were maintained for two days at 37° C. in a humidified, 5% CO2 atmosphere. The proliferation rate of the cells was determined by MTS assay (CellTiter 96 aqueous one-solution cell proliferation assay; Promega, Wis., USA). Forty microliters of CellTiter 96 aqueous one-solution were added to each well. After incubation for 4hrs, the UV absorbance of the solution was measured at a wavelength of 490 nm. All MTS assays were performed in triplicate.

SMILES: CCc1c2c(nc3ccc(OC(=O)N4CCC(N5CCCCC5)CC4)cc13)-c1cc3c(c(=O)n1C2)COC(=O)[C@]3(O)CC [CPT-11, Irinotecan hydrochloride]
- number of animals that exhibited bloody stool / bloody diarrhea (NOD/SCID mice [1]): 4 animals
- colon tissue damage (morphology and integrity of epithelial cells), H&E histology (NOD/SCID mice [2]): severe damage
- blood level of CPT-11 [3]: undetectable level

SMILES: COc1cc([C@@H]2Oc3c(O)cc([C@H]4Oc5cc(O)cc(O)c5C(=O)[C@@H]4O)cc3[C@H]2CO)ccc1O [silychristin]
- number of animals that exhibited bloody stool / bloody diarrhea (NOD/SCID mice [1]): none
- inhibition of eβG activity (E. Coli βG (eβG); 8 μM): ~80%
- eβG activity (E. Coli βG (eβG); 40 μM): negligible level
- effect on the activity of hβG (human βG (hβG)): without affecting
- effect on normal cells' activities (viability of HEK-293) (normal cells HEK-293): did not adversely affect
